Measured values as given in ChEMBL document CHEMBL4619727, “Induced osteoblast differentiation by amide derivatives of stilbene: The possible osteogenic agents” (Bioorg Med Chem Lett, 2020).
Each block holds one compound with its values, some of them ahead of it. The source made the active and inactive calls. No cut-off for these calls is given here.

Key:
[1] = tested on: Calvarial osteoblast; assay: Upregulation of ESR2 protein level in mouse calvarial osteoblast at 1 to 100 pM measured after 48 hrs by Western blot analysis; type: functional, cell-based
[2] = tested on: MCF7; assay: Cytotoxicity against human MCF7 cells assessed as cell growth inhibition at 30 ug/ml by MTT assay relative to control; type: functional; settings: read-out: GI
[3] = tested on: Mus musculus; assay: Anti-osteoporosis activity in ovariectomized BALB/c mouse assessed as reduction in trabecular spacing in femur bone at 1 to 5 mg/kg, po via gavage administered for 1 month by microCT imaging analysis; type: functional, organism-based
[4] = tested on: Mus musculus; assay: Anti-osteoporosis activity in ovariectomized BALB/c mouse assessed as reduction in trabecular pattern factor in femur bone at 1 to 5 mg/kg, po via gavage administered for 1 month by microCT imaging analysis; type: functional, organism-based
[5] = tested on: Mus musculus; assay: Anti-osteoporosis activity in ovariectomized BALB/c mouse assessed as increase in trabecular number in femur bone at 1 to 5 mg/kg, po via gavage administered for 1 month by microCT imaging analysis; type: functional, organism-based
[6] = tested on: Calvarial osteoblast; assay: Upregulation of ESR1 protein level in mouse calvarial osteoblast at 1 to 100 pM measured after 48 hrs by Western blot analysis; type: functional, cell-based
[7] = tested on: Mus musculus; assay: Anti-osteoporosis activity in ovariectomized BALB/c mouse at 5 mg/kg, po via gavage administered for 1 month by microCT imaging analysis; type: functional, organism-based
[8] = tested on: Calvarial osteoblast; assay: Upregulation of ALP mRNA expression in mouse calvarial osteoblast at 1 pM to 100 pM measured after 24 to 48 hrs by qPCR analysis; type: functional, cell-based
[9] = target: Estrogen receptor beta (Mus musculus) (UniProt O08537); assay: Induction of ESR2-mediated osteoblast differentiation in mouse calvarial osteoblast assessed as formation of mineralized nodule at 1 to 10 uM measured after 21 days by alizarin red staining based assay; type: cell-based
Estrogen receptor beta (Mus musculus), sequence (O08537 whole entry): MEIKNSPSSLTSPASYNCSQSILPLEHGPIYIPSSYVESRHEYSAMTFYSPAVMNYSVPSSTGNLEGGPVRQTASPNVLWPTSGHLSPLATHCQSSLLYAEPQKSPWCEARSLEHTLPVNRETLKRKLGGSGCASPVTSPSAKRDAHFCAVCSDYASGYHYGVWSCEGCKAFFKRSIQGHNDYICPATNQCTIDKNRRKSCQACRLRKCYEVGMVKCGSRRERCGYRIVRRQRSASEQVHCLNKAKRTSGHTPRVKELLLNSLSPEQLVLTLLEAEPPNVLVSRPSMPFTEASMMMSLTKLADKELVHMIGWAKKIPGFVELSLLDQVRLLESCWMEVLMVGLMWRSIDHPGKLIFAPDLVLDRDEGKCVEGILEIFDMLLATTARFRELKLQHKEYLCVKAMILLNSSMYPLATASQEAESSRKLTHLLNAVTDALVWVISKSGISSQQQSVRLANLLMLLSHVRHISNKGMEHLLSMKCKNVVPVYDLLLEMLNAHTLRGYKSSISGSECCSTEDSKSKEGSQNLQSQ

[10] = target: Estrogen receptor beta (Mus musculus) (UniProt O08537); assay: Induction of ESR2-mediated osteoblast differentiation in mouse calvarial osteoblast assessed as increase in ALP activity at 1 pM measured after 48 hrs by spectrophotometric analysis; type: cell-based
[11] = tested on: Calvarial osteoblast; assay: Osteo-blastogenic activity in mouse calvarial osteoblast assessed as upregulation of BMP2 mRNA expression at 1 pM to 100 pM measured after 48 hrs by qPCR analysis; type: functional, cell-based
[12] = tested on: Mus musculus; assay: Anti-osteoporosis activity in ovariectomized BALB/c mouse assessed as increase in trabecular thickness in femur bone at 1 to 5 mg/kg, po via gavage administered for 1 month by microCT imaging analysis; type: functional, organism-based
[13] = tested on: Mus musculus; assay: Anti-osteoporosis activity in ovariectomized BALB/c mouse assessed as increase in femur bone volume density at 1 to 5 mg/kg, po via gavage administered for 1 month by microCT imaging analysis; type: functional, organism-based
[14] = tested on: Calvarial osteoblast; assay: Osteo-blastogenic activity in mouse calvarial osteoblast assessed as upregulation of Runx2 mRNA expression at 1 pM to 100 pM measured after 48 hrs by qPCR analysis; type: functional, cell-based
[15] = tested on: Peritoneal macrophage cell; assay: Cytotoxicity against peritoneal macrophage cells (unknown origin) at 5 to 20 uM by MTT assay; type: cell-based
[16] = target: Estrogen receptor beta (Mus musculus) (UniProt O08537); assay: Induction of ESR2-mediated osteoblast differentiation in mouse calvarial osteoblast assessed as increase in ALP activity at 1 nM measured after 48 hrs by spectrophotometric analysis; type: cell-based
[17] = tested on: Mus musculus; assay: Anti-osteoporosis activity in ovariectomized BALB/c mouse assessed as increase in trabecular number in femur bone at 1 mg/kg, po via gavage administered for 1 month by microCT imaging analysis; type: functional, organism-based
[18] = tested on: Mus musculus; assay: Anti-osteoporosis activity in ovariectomized BALB/c mouse assessed as reduction in trabecular pattern factor in femur bone at 1 mg/kg, po via gavage administered for 1 month by microCT imaging analysis; type: functional, organism-based
[19] = tested on: Mus musculus; assay: Anti-osteoporosis activity in ovariectomized BALB/c mouse assessed as increase in trabecular thickness in femur bone at 1 mg/kg, po via gavage administered for 1 month by microCT imaging analysis; type: functional, organism-based
[20] = tested on: Mus musculus; assay: Anti-osteoporosis activity in ovariectomized BALB/c mouse assessed as reduction in trabecular spacing in femur bone at 1 mg/kg, po via gavage administered for 1 month by microCT imaging analysis; type: functional, organism-based
[21] = tested on: Mus musculus; assay: Anti-osteoporosis activity in ovariectomized BALB/c mouse assessed as increase in femur bone volume density at 1 mg/kg, po via gavage administered for 1 month by microCT imaging analysis; type: functional, organism-based
[22] = target: Estrogen receptor beta (Mus musculus) (UniProt O08537); assay: Induction of ESR2-mediated osteoblast differentiation in mouse calvarial osteoblast assessed as increase in ALP activity at 100 pM measured after 48 hrs by spectrophotometric analysis; type: cell-based

Activity [9]: Active | Activity [10]: Active
SMILES: CCCCN(C)C(=O)CCCCC/C(=C(/C)c1ccc(OC)cc1)c1ccccc1
Activity [1]: Active | inhibition of growth at 30 µg/mL [2]: 32.1% | Activity [3]: Active | Activity [4]: Active | Activity [5]: Active | Activity [6]: Active | Activity [7]: Active | Activity [8]: Active | Activity [11]: Active | Activity [12]: Active | Activity [13]: Active | Activity [14]: Active | Activity [15]: Non-Toxic

SMILES: COc1ccc(/C(C)=C(\CCCC(=O)N2CCCC2)c2ccccc2)cc1
inhibition of growth at 30 µg/mL [2]: 48.4%

Activity [16]: Active
SMILES: COc1ccc(/C(=C/c2ccccc2)CC(=O)N(C(C)C)C(C)C)cc1

SMILES: COc1ccc(/C(=C/c2ccccc2)CC(=O)N2CCCC2)cc1
inhibition of growth at 30 µg/mL [2]: 30 to 48%

SMILES: O=C(c1ccc(OCCN2CCCCC2)cc1)c1c(-c2ccc(O)cc2)sc2cc(O)ccc12
Activity [17]: Active | Activity [18]: Active | Activity [19]: Active | Activity [20]: Active | Activity [21]: Active

Activity [10]: Active
SMILES: COc1ccc(/C(C)=C(\CCCCCC(=O)N2CCCC2)c2ccccc2)cc1
inhibition of growth at 30 µg/mL [2]: 30 to 48%

Activity [22]: Active
SMILES: COc1ccc(/C(C)=C(\CCCC(=O)NCCc2ccccn2)c2ccccc2)cc1

SMILES: COc1ccc(/C(C)=C(\CCCC(=O)NCc2ccccn2)c2ccccc2)cc1
inhibition of growth at 30 µg/mL [2]: 30 to 48%

Activity [10]: Active
SMILES: CCCCCN(C)C(=O)C/C(=C\c1ccccc1)c1ccc(OC)cc1
inhibition of growth at 30 µg/mL [2]: 30 to 48%

SMILES: COc1ccc(/C(C)=C(\CCCCCC(=O)NCCc2ccccn2)c2ccccc2)cc1
inhibition of growth at 30 µg/mL [2]: 30 to 48%

SMILES: COc1ccc(/C(=C/c2ccccc2)CC(=O)NC(C)C)cc1
inhibition of growth at 30 µg/mL [2]: 30 to 48%

Activity [10]: Active
SMILES: CCCCN(C)C(=O)CCC/C(=C(/C)c1ccc(OC)cc1)c1ccccc1

SMILES: COc1ccc(/C(C)=C(\CCCCCC(=O)NCc2ccccn2)c2ccccc2)cc1
inhibition of growth at 30 µg/mL [2]: 30 to 48%

SMILES: COc1ccc(/C(=C/c2ccccc2)CC(=O)NCCc2ccccn2)cc1
inhibition of growth at 30 µg/mL [2]: 30 to 48%
